# Values of other authors as cited in US12496330B2, “Methods of improving spinal fusion with abaloparatide” (Radius Health, Inc., priority 2019, dated 2025).
# Test system: bone resorption and bone formation markers
# Conditions: male mice; at 4-fold the current dose
smiles,measurement,value
CC[C@H](C)[C@H](NC(=O)[C@H](CCC(=O)O)NC(=O)[C@H](CO)NC(=O)[C@@H](NC(=O)[C@@H](N)CO)C(C)C)C(=O)N[C@@H](CCC(N)=O)C(=O)N[C@@H](CC(C)C)C(=O)N[C@@H](CCSC)C(=O)N[C@@H](Cc1cnc[nH]1)C(=O)N[C@@H](CC(N)=O)C(=O)N[C@@H](CC(C)C)C(=O)NCC(=O)N[C@@H](CCCCN)C(=O)N[C@@H](Cc1cnc[nH]1)C(=O)N[C@@H](CC(C)C)C(=O)N[C@@H](CC(N)=O)C(=O)N[C@@H](CO)C(=O)N[C@@H](CCSC)C(=O)N[C@@H](CCC(=O)O)C(=O)N[C@@H](CCCN=C(N)N)C(=O)N[C@H](C(=O)N[C@@H](CCC(=O)O)C(=O)N[C@@H](Cc1c[nH]c2ccccc12)C(=O)N[C@@H](CC(C)C)C(=O)N[C@@H](CCCN=C(N)N)C(=O)N[C@@H](CCCCN)C(=O)N[C@@H](CCCCN)C(=O)N[C@@H](CC(C)C)C(=O)N[C@@H](CCC(N)=O)C(=O)N[C@@H](CC(=O)O)C(=O)N[C@H](C(=O)N[C@@H](Cc1cnc[nH]1)C(=O)N[C@@H](CC(N)=O)C(=O)N[C@@H](Cc1ccccc1)C(=O)O)C(C)C)C(C)C [teriparatide],Bone resorption markers,increased
